Here are results for 24 compounds from patent EP2769723A1, “Compounds for use in inhibiting HIV capsid assembly” (priority 2013, dated 2014).

One data set relates to wild type NL4.3 HIV-1. Description: Tissue culture infectivity test, TZM titration of supernatants from infected TZM cells. Type of data set: cell-based. The following applies: Human immunodeficiency virus 1, TZM. Here is the method: Hits selected in the YFP-screen were further evaluated in the tissue culture experiments with cells infected with the wild type NL4.3 HIV-1. The virus for infection was obtained from co-culture of MT4 cells. The MT4 cells co-culture was synchronized for one week and then used for the infection of fresh MT 4 cells. 48 hrs post-infection was the culture supernatant harvested, cleared by the filtration through […] filter and stored in -80 °C in 1 ml aliquots. Amount of virus was quantified by enzyme-linked immuno sorbent assay (ELISA) with antibodies against HIV-1 CA (3 ng of CA/ml) and blue cell assay (1x10^5 IU/ml), which gives 3 x 10^4 IU/ng of CA.
For compounds testing the TZM cells were seeded on 96-well plate in the density 5 x 10^3 cells per well. The culture media was aspirated approx. 16 hrs later and cells were infected by the wild type NLA.3 HIV-1 by addition of 50J..il of prepared virus stock diluted with 50 µl of complete DMEM. The compounds were added twice to ensure that there are not any preassembled viruses present at the time of their addition. Compounds were first added 8 hrs post-infection and then 24 hrs later. In both cases the old culture media were replaced by 100 µl of fresh complete DMEM prior to the compounds addition. Different compounds concentrations were tested, but the DMSO concentration never exceeded 1 % DMSO. As controls were used cells treated only with 1 % DMSO and cells treated with 0,1 µM Lopinavir (HIV-1 protease inhibitor). Supernatant was harvested 24 hrs after the second compound addition, i.e. 56 hrs post-infection. Harvested supernatants were immediately titrated on the fresh TZM cells in aim to perform the infectivity assay (TZM titration), or inactivated by addition of Triton X-100 to the final concentration 0.025 % for further ELISA analysis.
TZM titration was performed on the cells seeded day before on 96-well plate in the density 5 x 10^3 cells per well. The analysis was performed for each compound concentration at three different dilutions and in duplicates. The culture media was aspired and cells were lysed 48 hrs post-infection by addition of 100 µl of SteadyGlo luciferase substrate (Promega) diluted 1 : 1 by complete DMEM. The luminescence signal was measured on Luminoskan Ascent (Thermo Labsystems) after the transfer of 80 µl of lysate to the flat bottom white polystyrene assay plates (Costar).

In another data set the test system is TZM cells. Description: in vitro. The class given is cell-based. The following applies: Table 4; non-cytotoxic when values higher than 80 % of 1 % DMSO treated cells. The method, then:
Cytotoxicity of selected hits tested in the assay with NL4.3 infected cells was determined by MTT test. TZM cells were seeded on the previous day on 96-well plate in the density 5 x 10^3 cells per well. The tested compounds were added in different concentrations, but the DMSO concentration never exceeded 1 % DMSO. As controls were used cells treated only with 1 % DMSO (non-toxic concentration) and cells treated with 5 % DMSO (toxic concentration). 20 µl of the CellTiter 96 Aqueous One substrate (Promega) was added to the 100 µl of culture media 48 hrs after the compounds addition and the color development was quantified 4 hrs later by measuring the absorbance at 490 nm on Saphire reader. Compounds were consider non-cytotoxic (at given concentrations) when the measured values were higher than 80 % of the value of 1 % DMSO treated cells.

The mark [1] stands for this setting: read-out: tissue culture IC50 (µM).
[2] abbreviates: Table 4, cells infected with wild type NL4.3 HIV-1, read-out: tissue culture IC50.

The structures appear in SMILES notation. Counter-ions that a name gives are not always drawn. Like-named read-outs stand apart in the source and are kept apart here.

For `CCN(CC)c1nc(-c2cccnc2)nc2ccccc12` [KP-237], the IC50 in the data set with wild type NL4.3 HIV-1 (setting [1]) was > 10 µM. In addition, the “toxicity LC50 (µM)” value with TZM cells is given as “non-toxic”.
As for `NNC(=O)c1ccc(Nc2nc(-c3cccnc3)nc3ccccc23)cc1` [KP-242], the IC50 in the data set on wild type NL4.3 HIV-1 (setting [1]) is > 10 µM. In addition, the “toxicity LC50 (µM)” value in the data set with TZM cells is recorded as “non-toxic”.
`Oc1cc(Cl)cc(Nc2nc(-c3cccnc3)nc3ccccc23)c1` [KP-251]: the IC50 in the data set with wild type NL4.3 HIV-1 (setting [1]) was ~5 µM. Moreover, the “toxicity LC50 (µM)” value with TZM cells is “non-toxic”.
With `Clc1ccc(Nc2nc(-c3cccnc3)nc3ccccc23)c(Cl)c1Cl` [KP-260], the IC50 with wild type NL4.3 HIV-1 (setting [1]) was > 10 µM. Besides, the “toxicity LC50 (µM)” value in the data set with TZM cells is on record as “non-toxic”.
For `Fc1cc(Nc2nc(Nc3cc(F)c(F)c(F)c3)c3ccccc3n2)cc(F)c1F` [KP-265], the IC50 in the data set on wild type NL4.3 HIV-1 (setting [1]) was ~10 µM. Further, the “toxicity LC50 (µM)” value in the data set on TZM cells is recorded as “non-toxic”.
In the case of `Fc1cc(Nc2nc(N3CCOCC3)nc3ccccc23)cc(F)c1F` [KP-268], the IC50 in the data set with wild type NL4.3 HIV-1 (setting [1]) is > 10 µM. Also, the “toxicity LC50 (µM)” value with TZM cells was “non-toxic”.
`O=S(=O)(c1ccc(Nc2nc(-c3cccnc3)nc3ccccc23)cc1)c1nccs1` [KP-270]: the IC50 with wild type NL4.3 HIV-1 (setting [1]) was > 10 µM. Moreover, the “toxicity LC50 (µM)” value in the data set with TZM cells is reported as “non-toxic”.
Consider `Fc1ccc(Nc2nc(-c3cccnc3)nc3ccccc23)cc1F` [KP-271], for which the IC50 in the data set on wild type NL4.3 HIV-1 (setting [1]) was ~10 µM. The “toxicity LC50 (µM)” value in the data set on TZM cells was “non-toxic”.
For `COc1cc2nc(Nc3cc(F)c(F)c(F)c3)nc(Nc3cc(F)c(F)c(F)c3)c2cc1OC` [KP-272] the same measures were < 5 µM and “non-toxic”.
For the compound `Cc1ccc(Nc2nc(-c3cccnc3)nc3ccccc23)cc1C(F)(F)F` [KP-278], the IC50 in the data set on wild type NL4.3 HIV-1 (setting [1]) is ~10 µM. The “toxicity LC50 (µM)” value in the data set on TZM cells is recorded as “non-toxic”.
`COc1ccc(Nc2nc(-c3cccnc3)nc3ccccc23)cn1` [KP-283]: in the data set on wild type NL4.3 HIV-1 (setting [1]), the IC50 is > 10 µM. Moreover, the “toxicity LC50 (µM)” value in the data set on TZM cells is listed as “non-toxic”.
Take `COc1ccc(Nc2nc(Cl)nc3ccccc23)cn1` [KP-288]: the IC50 in the data set with wild type NL4.3 HIV-1 (setting [1]) was > 10 µM. The “toxicity LC50 (µM)” value with TZM cells is reported as “non-toxic”.
`COc1ccc(Nc2nc(-c3cc(F)c(F)c(F)c3)nc3ccccc23)cn1` [KP-291]: the IC50 with wild type NL4.3 HIV-1 (setting [1]) was > 10 µM. Moreover, in the data set on TZM cells, the “toxicity LC50 (µM)” value is “non-toxic”.
Regarding `c1cncc(-c2nc(Oc3nc(-c4cccnc4)nc4ccccc34)c3ccccc3n2)c1` [OSA-296], the IC50 with wild type NL4.3 HIV-1 (setting [1]) is > 10 µM. Besides, the “toxicity LC50 (µM)” value in the data set on TZM cells is recorded as “non-toxic”.
Turning to `O=C(c1ccccc1)c1ccc(Nc2nc(-c3ccncc3)nc3ccccc23)cc1` [OSR-48], the IC50 in the data set on wild type NL4.3 HIV-1 (setting [1]) is > 25 µM. Also, the “toxicity LC50 (µM)” value with TZM cells was “non toxic”.
For the compound `COCCOc1cc2nc(-c3cccnc3)nc(Nc3ccc(C(=O)O)cc3O)c2cc1OCCOC` [OSR-79 free base], the IC50 in the data set on wild type NL4.3 HIV-1 (setting [1]) is > 25 µM. For the same compound, in the data set on TZM cells, the “toxicity LC50 (µM)” value was “non toxic”.
On to `O[C@H]1CC[C@H](Nc2nc(-c3cccnc3)nc3ccccc23)CC1` [OSR-183], for which the IC50 with wild type NL4.3 HIV-1 (setting [1]) was > 25 µM. The “toxicity LC50 (µM)” value in the data set with TZM cells is listed as “non-toxic”.
In the case of `FC(F)(F)c1cccc(Nc2nc(-c3cccnc3)nc3ccccc23)c1` [OSR-198], in the data set with wild type NL4.3 HIV-1 (setting [1]), the IC50 was > 25 µM. In addition, the “toxicity LC50 (µM)” value in the data set with TZM cells is “non-toxic”.
On to `Fc1cc(Nc2cc(-c3cccnc3)nc3ccccc23)cc(F)c1F` [OSR-205], for which, in the data set with wild type NL4.3 HIV-1 (setting [1]), the IC50 was ~10 µM. Moreover, in the data set with TZM cells, the “toxicity LC50 (µM)” value is recorded as “non-toxic”.
For `CCOc1nc(-c2cccnc2)nc2ccccc12` [OSR-236], the IC50 in the data set with wild type NL4.3 HIV-1 (setting [2]) was 10 to 15 µM. The “toxicity LC50 (µM)” value in the data set with TZM cells is “non-toxic”.
For `CN(C)c1nc(-c2cccnc2)nc2ccc(O)cc12` [OSR-242X], in the data set on wild type NL4.3 HIV-1 (setting [2]), the IC50 lay within 0.5 to 1 µM. Further, the “toxicity LC50 (µM)” value in the data set on TZM cells is reported as “non-toxic”.
On to `COCCN(CCOC)c1nc(-c2cccnc2)nc2ccccc12` [OSR-283 HCl], for which, in the data set with wild type NL4.3 HIV-1 (setting [1]), the IC50 was > 10 µM. The “toxicity LC50 (µM)” value with TZM cells is on record as “non-toxic”.
Regarding `CC(C)(C)Oc1nc(-c2cccnc2)nc2ccccc12` [OSR-285], the IC50 in the data set with wild type NL4.3 HIV-1 (setting [1]) is > 10 µM. Further, the “toxicity LC50 (µM)” value with TZM cells is “non-toxic”.
With `c1ccc(Sc2nc(-c3cccnc3)nc3ccccc23)cc1` [OSR-290], the IC50 in the data set with wild type NL4.3 HIV-1 (setting [1]) was > 10 µM. In addition, the “toxicity LC50 (µM)” value in the data set on TZM cells was “non-toxic”.

As a reminder, the IC50 is the point on the concentration scale where inhibition reaches its midpoint.
